Molecular target: T1, gp16 (eGFP-gp16), phi29 DNA packaging motor ATPase (Bacillus phage phi29, UniProt P11014)
T1 sequence (P11014 1-332): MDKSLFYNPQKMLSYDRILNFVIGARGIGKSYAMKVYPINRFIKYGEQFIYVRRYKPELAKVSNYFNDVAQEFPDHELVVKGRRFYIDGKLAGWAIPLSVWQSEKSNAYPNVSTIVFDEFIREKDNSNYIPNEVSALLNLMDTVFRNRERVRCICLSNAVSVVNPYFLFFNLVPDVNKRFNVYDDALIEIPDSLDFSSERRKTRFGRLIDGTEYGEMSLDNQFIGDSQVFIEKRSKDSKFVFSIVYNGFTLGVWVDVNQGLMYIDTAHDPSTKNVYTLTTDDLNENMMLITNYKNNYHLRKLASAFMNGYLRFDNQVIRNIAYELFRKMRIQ
Settings: without and with saturating dsDNA

For `Nc1ncnc2c1ncn2[C@@H]1O[C@H](COP(=O)(O)OP(=O)(O)OP(=O)(O)O)[C@@H](O)[C@H]1O` [ATP], the “fluorescence ATPase assay” value was “each subunit of gp16 is able to hydrolyze ATP independently”.

— publication PMC3850062 (Virology, 2013)
